Among the data in patent publication US9808425B2, “Targeted liposomes in cancer therapy” (WESTERN UNIVERSITY OF HEALTH SCIENCES, priority 2011, dated 2017) are IC50 values, retold here.

Structures are written as SMILES.

The test system of the experiment is A549 cells. Put plainly: DNR-mediated cytotoxicity, MTS assay. Particulars: Homo sapiens, A549, 72 h, read-out: IC50 AVG. The format is cell-based. Here is the method: Because DNR is a cytotoxic compound, the effectiveness of cystine liposomal DNR as an intracellular delivery system was assessed by relying on cytotoxicity measurements as a measure of DNR uptake. […] Cytotoxicity was measured in A549 cells following the addition of the aforementioned DNR formulations to the cells followed by an incubation period, and determination of cytotoxicity by using a MTS assay. Briefly, an MTS assay is a non radioactive cell proliferative assay of a tetrazolium compound (3-(4,5-dimethylthiazol-2-yl)-5-(3-carboxymethoxyphenyl)-2-(4-sulfophenyl)-2H-tetrazolium, inner salt; MTS) and the electron coupling reagent, phenazine methosulfate (PMS). MTS is bio-reduced by cells to a formazan compound by a reductase enzyme present in metabolically active cells. The absorbance of the formazan compound can be measured at 490 nm wavelength and is directly proportional to the number of living cells. The toxicity was determined using dose response curve to determine IC50. IC50 is the concentration of the test compound required to reduce light absorbance capacity of the cells by 50%.
MTS reagent was prepared by mixing 20% MTS and 1% PMS solution in RPMI 1640 medium of volume 8 ml. […] The amount of formazan was measured at 490 nm wavelength. […]
A general note: Tetrazolium dyes change colour on reduction, which living cells bring about.

The IC50 is the point on the concentration scale where inhibition reaches its midpoint. Take `COc1cccc2c1C(=O)c1c(O)c3c(c(O)c1C2=O)C[C@@](O)(C(C)=O)C[C@@H]3O[C@H]1C[C@H](N)[C@H](O)[C@H](C)O1` [Free DNR, daunorubicin]: the IC50 was 15.2 µM.
